Data from patent publication US20240270762A1, “PENICILLIN-BINDING PROTEIN INHIBITORS” (priority 2021, published 2024).
In brackets after ≈: the same amount, converted by molar mass.

How the values were obtained:
Assay in all cases: microbe, parasite or virus in culture
Format in all cases: cell-based
[1] = test system: B. humptydooensis ATCC BAA-2767; conditions: Burkholderia humptydooensis, ATCCBAA2767, read-out: Minimum inhibitory concentration (MIC), B. humptydooensis ATCC BAA-2767
P. aeruginosa CDC-0054 = conditions: Pseudomonas aeruginosa, CDC0054, read-out: Minimum inhibitory concentration, P. aeruginosa CDC-0054
B. pseudomallei Bp82 = conditions: Burkholderia pseudomallei, BP82, read-out: Minimum inhibitory concentration, B. pseudomallei Bp82

Structure (SMILES)	MIC [1] [µg/mL]	MIC (P. aeruginosa CDC-0054) [µg/mL]	MIC (B. pseudomallei Bp82) [µg/mL]
CS(=O)(=O)N1CCN(C(=O)N[C@@H](C(=O)N[C@H]2Cc3ccc(F)c(C(=O)O)c3OB2O)c2ccc(P(=O)(O)O)c(F)c2)C1=O (single isomer, unassigned) [Example 19]	32 to 64 (≈ 49.5 to 99 µM)	> 128	
O=C(O)c1c(F)ccc2c1OB(O)[C@@H](NC(=O)C(NC(=O)N1CCN(Cc3ccc(O)c(O)c3Cl)C(=O)C1=O)c1ccc(P(=O)(O)O)cc1)C2 (stereo partly drawn) [Example 8, (3R)-3-(2-(4-(2-chloro-3,4-dihydroxybenzyl)-2,3-dioxopiperazine-1-carboxamido)-2-(4-phosphonophenyl)acetamido)-7-fluoro-2-hydroxy-3,4-dihydro-2H-benzo[e][1,2]oxaborinine-8-carboxylic acid]	< 1	< 1	< 1
O=C(O)c1c(F)ccc2c1OB(O)[C@@H](NC(=O)C(NC(=O)N1CCN(Cc3ccc(O)c(O)c3Cl)C1=O)c1ccc(P(=O)(O)O)cc1)C2 (stereo partly drawn) [Example 46, (3R)-3-(2-(3-(2-chloro-3,4-dihydroxybenzyl)-2-oxoimidazolidine-1-carboxamido)-2-(4-phosphonophenyl)acetamido)-7-fluoro-2-hydroxy-3,4-dihydro-2H-benzo[e][1,2]oxaborinine-8-carboxylic acid]	< 1	2 to 4 (≈ 2.83 to 5.66 µM)	
O=C(NCCN1CCN(C(=O)NC(C(=O)N[C@H]2Cc3ccc(F)c(C(=O)O)c3OB2O)c2ccc(P(=O)(O)O)cc2)C(=O)C1=O)c1ccc(O)c(O)c1Cl (stereo partly drawn) [Example 120, (3R)-3-(2-(4-(2-(2-chloro-3,4-dihydroxybenzamido)ethyl)-2,3-dioxopiperazine-1-carboxamido)-2-(4-phosphonophenyl)acetamido)-7-fluoro-2-hydroxy-3,4-dihydro-2H-benzo[e][1,2]oxaborinine-8-carboxylic acid]	< 1	< 1	
O=C(O)c1cccc2c1OB(O)[C@@H](NC(=O)C(NC(=O)N1CCN(Cc3ccc(O)c(O)c3Cl)C(=O)C1=O)c1ccc(P(=O)(O)O)cc1)C2 (stereo partly drawn) [Example 24, (3R)-3-(2-(4-(2-chloro-3,4-dihydroxybenzyl)-2,3-dioxopiperazine-1-carboxamido)-2-(4-phosphonophenyl)acetamido)-2-hydroxy-3,4-dihydro-2H-benzo[e][1,2]oxaborinine-8-carboxylic acid]	< 1	< 1	
O=C(N[C@@H](C(=O)N[C@H]1Cc2cccc(C(=O)O)c2OB1O)c1ccc(P(=O)(O)O)cc1)c1ccc(O)c(O)c1Cl [Example 49, (R)-3-((R)-2-(2-chloro-3,4-dihydroxybenzamido)-2-(4-phosphonophenyl)acetamido)-2-hydroxy-3,4-dihydro-2H-benzo[e][1,2]oxaborinine-8-carboxylic acid]	< 1	< 1	
O=C(O)c1c(F)ccc2c1OB(O)[C@@H](NC(=O)C(NC(=O)N1CCN(Cc3ccc(O)c(O)c3Cl)C(=O)C1=O)c1ccc(P(=O)(O)O)c(F)c1)C2 (stereo partly drawn) [Example 23, (3R)-3-(2-(4-(2-chloro-3,4-dihydroxybenzyl)-2,3-dioxopiperazine-1-carboxamido)-2-(3-fluoro-4-phosphonophenyl)acetamido)-7-fluoro-2-hydroxy-3,4-dihydro-2H-benzo[e][1,2]oxaborinine-8-carboxylic acid]	< 1	< 1	
O=C(O)c1c(F)ccc2c1OB(O)[C@@H](NC(=O)C(NC(=O)N1CCN(Cc3cc(F)c(O)c(O)c3Cl)C(=O)C1=O)c1ccc(P(=O)(O)O)cc1)C2 (stereo partly drawn) [Example 45, (3R)-3-(2-(4-(2-chloro-5-fluoro-3,4-dihydroxybenzyl)-2,3-dioxopiperazine-1-carboxamido)-2-(4-phosphonophenyl)acetamido)-7-fluoro-2-hydroxy-3,4-dihydro-2H-benzo[e][1,2]oxaborinine-8-carboxylic acid]	< 1	< 1	
